Reference: US20240279236A1, “COMPOUNDS AND METHODS OF TREATING TUBERCULOSIS” (Fimbrion Therapeutics, Inc., priority 2021, published 2024)

Test system: WT Mtb Erdman strain
Assay: Microplate Alamar Blue Assay (MABA), Mtb growth inhibition
Assay type: cell-based, Mycobacterium tuberculosis
Details: Middlebrook 7H9 media, 7 days at 37° C. in 5% CO2
[1] = Mycobacterium tuberculosis, ERDMAN, 168 h

SMILES	IC50 [1] [nM]	IC50 [nM]
Cc1cc2c(NCCCc3ccc(-c4ccc(OC(F)(F)F)cc4)cc3)nc(-c3cncn3C)nc2s1 [Example 444, 6-methyl-2-(1-methyl-1H-imidazol-5-yl)-N-(3-(4′-(trifluoromethoxy)-[1,1′-biphenyl]-4-yl)propyl)thieno[2,3-d]pyrimidin-4-amine]	5500	–
Cc1nc(NCCCc2ccc(-c3ccc(OC(F)(F)F)cc3)cc2)c2cc(C)sc2n1 [Example 445, 2,6-dimethyl-N-(3-(4′-(trifluoromethoxy)-[1,1′-biphenyl]-4-yl)propyl)thieno[2,3-d]pyrimidin-4-amine]	160	–
Cc1cc2c(NCCCc3ccc(-c4ccc(OC(F)(F)F)cc4)cc3)nc(-c3ncon3)nc2s1 [Example 446, 6-methyl-2-(1,2,4-oxadiazol-3-yl)-N-(3-(4′-(trifluoromethoxy)-[1,1′-biphenyl]-4-yl)propyl)thieno[2,3-d]pyrimidin-4-amine]	96	–
Cc1cc2c(NCCCc3ccc(-c4ccc(OC(F)(F)F)cc4)cc3)nc(-c3cnn(C)c3)nc2s1 [Example 447, 6-methyl-2-(1-methyl-1H-pyrazol-4-yl)-N-(3-(4′-(trifluoromethoxy)-[1,1′-biphenyl]-4-yl)propyl)thieno[2,3-d]pyrimidin-4-amine]	57	–
CCSc1nc(NCCCc2ccc(-c3ccc(OC(F)(F)F)cc3)cc2)c2cc(C)sc2n1 [Example 448, 2-(ethylthio)-6-methyl-N-(3-(4′-(trifluoromethoxy)-[1,1′-biphenyl]-4-yl)propyl)thieno[2,3-d]pyrimidin-4-amine]	44	–
Cc1cc2c(NCCCc3ccc(-c4ccc(OC(F)(F)F)cc4)cc3)nc(-c3c(C)noc3C)nc2s1 [Example 449, 2-(3,5-dimethylisoxazol-4-yl)-6-methyl-N-(3-(4′-(trifluoromethoxy)-[1,1′-biphenyl]-4-yl)propyl)thieno[2,3-d]pyrimidin-4-amine]	> 1000	–
Cc1cc2c(NCCCc3ccc(-c4ccc(OC(F)(F)F)cc4)cc3)nc(-c3ccn(C)n3)nc2s1 [Example 450, 6-methyl-2-(1-methyl-1H-pyrazol-3-yl)-N-(3-(4′-(trifluoromethoxy)-[1,1′-biphenyl]-4-yl)propyl)thieno[2,3-d]pyrimidin-4-amine]	490	–
Cc1cc2c(NCCCc3ccc(-c4ccc(OC(F)(F)F)cc4)cc3)nc(-n3ccnc3)nc2s1 [Example 451, 2-(1H-imidazol-1-yl)-6-methyl-N-(3-(4′-(trifluoromethoxy)-[1,1′-biphenyl]-4-yl)propyl)thieno[2,3-d]pyrimidin-4-amine]	1800	–
Cc1cc2c(NCCCc3ccc(-c4ccc(OC(F)(F)F)cc4)cc3)nc(C3CC3)nc2s1 [Example 452]	76	–
Cc1cc2c(NCCCc3ccc(-c4ccc(OC(F)(F)F)cc4)cc3)nc(C3CCC3)nc2s1 [Example 453, 2-cyclobutyl-6-methyl-N-(3-(4′-(trifluoromethoxy)-[1,1′-biphenyl]-4-yl)propyl)thieno[2,3-d]pyrimidin-4-amine]	58	–
Cc1cc2c(NCCCc3ccc(-c4ccc(OC(F)(F)F)cc4)cc3)nc(-c3cn[nH]c3)nc2s1 [Example 454, 6-methyl-2-(1H-pyrazol-4-yl)-N-(3-(4′-(trifluoromethoxy)-[1,1′-biphenyl]-4-yl)propyl)thieno[2,3-d]pyrimidin-4-amine]	> 1000	–
Cc1cc2c(NCCCc3ccc(-c4ccc(OC(F)(F)F)cc4)cc3)nc(C(C)C)nc2s1 [Example 455, 2-isopropyl-6-methyl-N-(3-(4′-(trifluoromethoxy)-[1,1′-biphenyl]-4-yl)propyl)thieno[2,3-d]pyrimidin-4-amine]	56	–
Cc1cc2c(NCCCc3ccc(-c4ccc(OC(F)(F)F)cc4)cc3)nc(-c3ccoc3C)nc2s1 [Example 456, 6-methyl-2-(2-methylfuran-3-yl)-N-(3-(4′-(trifluoromethoxy)-[1,1′-biphenyl]-4-yl)propyl)thieno[2,3-d]pyrimidin-4-amine]	> 10000	–
Cc1nc2c(NCCCc3ccc(-c4cnc(F)cn4)cc3)nc(-c3ncon3)nc2s1 [Example 457, N-(3-(4-(5-fluoropyrazin-2-yl)phenyl)propyl)-2-methyl-5-(1,2,4-oxadiazol-3-yl)thiazolo[5,4-d]pyrimidin-7-amine]	> 1000	–
CSc1nc(NCCCc2ccc(-c3ccc(C(F)(F)F)cn3)cc2)c2cc(C)sc2n1 [Example 458, 6-methyl-2-(methylthio)-N-(3-(4-(5-(trifluoromethyl)pyridin-2-yl)phenyl)propyl)thieno[2,3-d]pyrimidin-4-amine]	14	–
Cc1cc2c(NCCCc3ccc(-c4ccc(OC(F)(F)F)cn4)cc3)nc(-c3ccon3)nc2s1 [Example 459, 2-(isoxazol-3-yl)-6-methyl-N-(3-(4-(5-(trifluoromethoxy)pyridin-2-yl)phenyl)propyl)thieno[2,3-d]pyrimidin-4-amine]	43	–
Cc1nc2c(NCCCc3ccc(-c4cnc(F)cn4)cc3)nc(-c3ccon3)nc2s1 [Example 465, N-(3-[4-(5-fluoropyrazin-2-yl)phenyl]propyl)-2-methyl-5-(1,2-oxazol-3-yl)-[1,3]thiazolo[5,4-d]pyrimidin-7-amine]	180	–

SMILES	IC50 [1] [nM]	IC50 [nM]
FC(F)(F)Oc1ccc(-c2ccc(CCCNc3nc(Cl)nc4sccc34)cc2)cc1 [Example 467, 2-chloro-N-(3-(4′-(trifluoromethoxy)-[1,1′-biphenyl]-4-yl)propyl)thieno[2,3-d]pyrimidin-4-amine]	200	–
FC(F)(F)Oc1ccc(-c2ccc(CCCNc3nc(Cl)nc4scnc34)cc2)cc1 [Example 468, 5-chloro-N-(3-(4′-(trifluoromethoxy)-[1,1′-biphenyl]-4-yl)propyl)thiazolo[5,4-d]pyrimidin-7-amine]	690	–
Cc1cc2c(NCCCc3ccc(-c4cnc(F)cn4)cc3)nc(Cl)nc2s1 [Example 469, 2-chloro-N-(3-(4-(5-fluoropyrazin-2-yl)phenyl)propyl)-6-methylthieno[2,3-d]pyrimidin-4-amine]	170	–
Cc1nc2c(NCCCc3ccc(-c4cnc(F)cn4)cc3)nc(Cl)nc2s1 [Example 470, 5-chloro-N-(3-(4-(5-fluoropyrazin-2-yl)phenyl)propyl)-2-methylthiazolo[5,4-d]pyrimidin-7-amine]	330	–
Cc1cc2c(N[C@@H]3C[C@H]3c3ccc(F)c(F)c3)nc(-c3ccc(=O)[nH]c3)nc2s1 [Example 490, 5-(4-(((1R,2S)-2-(3,4-difluorophenyl)cyclopropyl)amino)-6-methylthieno[2,3-d]pyrimidin-2-yl)pyridin-2(1H)-one]	4700	> 9100
Cc1cc2c(N[C@@H]3C[C@H]3c3ccc(F)c(F)c3)nc(-c3ccnc(N(C)C)c3)nc2s1 [Example 491, N-((1R,2S)-2-(3,4-difluorophenyl)cyclopropyl)-2-(2-(dimethylamino)pyridin-4-yl)-6-methylthieno[2,3-d]pyrimidin-4-amine]	4400	–
Cc1cc2c(N[C@@H]3C[C@H]3c3ccc(F)c(F)c3)nc(-c3ccc(S(C)(=O)=O)cc3)nc2s1 [Example 492, N-((1R,2S)-2-(3,4-difluorophenyl)cyclopropyl)-6-methyl-2-(4-(methylsulfonyl)phenyl)thieno[2,3-d]pyrimidin-4-amine]	> 10000	–
Cc1cc2c(N[C@@H]3C[C@H]3c3ccc(F)c(F)c3)nc(-c3cncnc3)nc2s1 [Example 493, N-((1R,2S)-2-(3,4-difluorophenyl)cyclopropyl)-6-methyl-2-(pyrimidin-5-yl)thieno[2,3-d]pyrimidin-4-amine]	> 10000	–
CNS(=O)(=O)c1ccccc1-c1nc(N[C@@H]2C[C@H]2c2ccc(F)c(F)c2)c2cc(C)sc2n1 [Example 494, 2-(4-(((1R,2S)-2-(3,4-difluorophenyl)cyclopropyl)amino)-6-methylthieno[2,3-d]pyrimidin-2-yl)-N-methylbenzenesulfonamide]	> 10000	–
Cc1cc2c(N[C@@H]3C[C@H]3c3ccc(F)c(F)c3)nc(-c3ccccc3O)nc2s1 [Example 495, 2-(4-(((1R,2S)-2-(3,4-difluorophenyl)cyclopropyl)amino)-6-methylthieno[2,3-d]pyrimidin-2-yl)phenol]	> 10000	–
COc1ccccc1-c1nc(N[C@@H]2C[C@H]2c2ccc(F)c(F)c2)c2cc(C)sc2n1 [Example 496, N-((1R,2S)-2-(3,4-difluorophenyl)cyclopropyl)-2-(2-methoxyphenyl)-6-methylthieno[2,3-d]pyrimidin-4-amine]	> 10000	–
Cc1cc2c(N[C@@H]3C[C@H]3c3ccc(F)c(F)c3)nc(-c3ccc(O)cc3)nc2s1 [Example 497, 4-(4-(((1R,2S)-2-(3,4-difluorophenyl)cyclopropyl)amino)-6-methylthieno[2,3-d]pyrimidin-2-yl)phenol]	> 10000	–
COc1ccc(-c2nc(N[C@@H]3C[C@H]3c3ccc(F)c(F)c3)c3cc(C)sc3n2)cc1 [Example 498, N-((1R,2S)-2-(3,4-difluorophenyl)cyclopropyl)-2-(4-methoxyphenyl)-6-methylthieno[2,3-d]pyrimidin-4-amine]	4100	–
Cc1cc2c(N[C@@H]3C[C@H]3c3ccc(F)c(F)c3)nc(-c3ccc(F)cc3F)nc2s1 [Example 499, 2-(2,4-difluorophenyl)-N-((1R,2S)-2-(3,4-difluorophenyl)cyclopropyl)-6-methylthieno[2,3-d]pyrimidin-4-amine]	3400	–
Cc1cc2c(N[C@@H]3C[C@H]3c3ccc(F)c(F)c3)nc(-c3ccc(F)c(F)c3)nc2s1 [Example 500, 2-(3,4-difluorophenyl)-N-((1R,2S)-2-(3,4-difluorophenyl)cyclopropyl)-6-methylthieno[2,3-d]pyrimidin-4-amine]	3600	–
Cc1cc2c(N[C@@H]3C[C@H]3c3ccc(F)c(F)c3)nc(-c3cccc(N(C)C)c3)nc2s1 [Example 501, N-((1R,2S)-2-(3,4-difluorophenyl)cyclopropyl)-2-(3-(dimethylamino)phenyl)-6-methylthieno[2,3-d]pyrimidin-4-amine]	> 10000	–
C=Cc1nc(NCCCc2ccc(-c3ccc(OC(F)(F)F)cc3)cc2)c2cc(C)sc2n1 [Example 502, 2-ethenyl-6-methyl-N-(3-[4′-(trifluoromethoxy)-[1,1′-biphenyl]-4-yl]propyl)thieno[2,3-d]pyrimidin-4-amine]	6	–
